Laboratory results: the NIST ThermoML archive (doi:10.1016/j.jct.2018.03.013)
Numbers after ± are expanded uncertainties.

Test: xn = mol fraction of the nth substance listed
Conditions: 100 kPa, Liquid; for speed of sound: Frequency=3 MHz, Linear variable-path acoustic interferometer; for mass density: Pycnometric method

C=C(C)C(=O)OCCCC [butyl 2-methyl-2-propenoate] + CC#N
speed of sound (293.15 K, x2 = 0): 1241.7 ± 1.7 m/s
speed of sound (293.15 K, x2 = 0.0681): 1244.4 ± 1.7 m/s
speed of sound (293.15 K, x2 = 0.1359): 1247.2 ± 1.7 m/s
speed of sound (293.15 K, x2 = 0.1976): 1249.7 ± 1.7 m/s
speed of sound (293.15 K, x2 = 0.2728): 1252.7 ± 1.7 m/s
speed of sound (293.15 K, x2 = 0.3442): 1255.5 ± 1.7 m/s
speed of sound (293.15 K, x2 = 0.4143): 1258.2 ± 1.7 m/s
speed of sound (293.15 K, x2 = 0.4658): 1260.3 ± 1.7 m/s
speed of sound (293.15 K, x2 = 0.5243): 1262.7 ± 1.7 m/s
speed of sound (293.15 K, x2 = 0.5649): 1264.5 ± 1.7 m/s
speed of sound (293.15 K, x2 = 0.639): 1268.1 ± 1.7 m/s
speed of sound (293.15 K, x2 = 0.7112): 1272.2 ± 1.7 m/s
speed of sound (293.15 K, x2 = 0.7836): 1277.3 ± 1.7 m/s
speed of sound (293.15 K, x2 = 0.8558): 1283.7 ± 1.6 m/s
speed of sound (293.15 K, x2 = 0.928): 1292.4 ± 1.6 m/s
mass density (293.15 K, x2 = 0): 895.19 ± 1 kg/m3
mass density (293.15 K, x2 = 0.0681): 892.7 ± 1 kg/m3
mass density (293.15 K, x2 = 0.1359): 889.93 ± 1 kg/m3
mass density (293.15 K, x2 = 0.1976): 887.12 ± 1 kg/m3
mass density (293.15 K, x2 = 0.2728): 883.27 ± 1 kg/m3
mass density (293.15 K, x2 = 0.3442): 879.11 ± 1 kg/m3
mass density (293.15 K, x2 = 0.4143): 874.45 ± 1 kg/m3
mass density (293.15 K, x2 = 0.4658): 870.61 ± 1 kg/m3
mass density (293.15 K, x2 = 0.5243): 865.72 ± 1 kg/m3
mass density (293.15 K, x2 = 0.5649): 861.96 ± 1 kg/m3
mass density (293.15 K, x2 = 0.639): 854.15 ± 1 kg/m3
mass density (293.15 K, x2 = 0.7112): 845.09 ± 1 kg/m3
mass density (293.15 K, x2 = 0.7836): 834.14 ± 1 kg/m3
mass density (293.15 K, x2 = 0.8558): 820.72 ± 1 kg/m3
mass density (293.15 K, x2 = 0.928): 803.86 ± 1 kg/m3
speed of sound (298.15 K, x2 = 0): 1222.1 ± 1.7 m/s
speed of sound (298.15 K, x2 = 0.0681): 1224.8 ± 1.7 m/s
speed of sound (298.15 K, x2 = 0.1359): 1227.6 ± 1.7 m/s
speed of sound (298.15 K, x2 = 0.1976): 1230 ± 1.7 m/s
speed of sound (298.15 K, x2 = 0.2728): 1232.9 ± 1.7 m/s
speed of sound (298.15 K, x2 = 0.3442): 1235.5 ± 1.7 m/s
speed of sound (298.15 K, x2 = 0.4143): 1238.2 ± 1.7 m/s
speed of sound (298.15 K, x2 = 0.4658): 1240.2 ± 1.7 m/s
speed of sound (298.15 K, x2 = 0.5243): 1242.5 ± 1.7 m/s
speed of sound (298.15 K, x2 = 0.5649): 1244.2 ± 1.6 m/s
speed of sound (298.15 K, x2 = 0.639): 1247.7 ± 1.6 m/s
speed of sound (298.15 K, x2 = 0.7112): 1251.6 ± 1.6 m/s
speed of sound (298.15 K, x2 = 0.7836): 1256.4 ± 1.6 m/s
speed of sound (298.15 K, x2 = 0.8558): 1262.6 ± 1.6 m/s
speed of sound (298.15 K, x2 = 0.928): 1271 ± 1.6 m/s
mass density (298.15 K, x2 = 0): 890.48 ± 1 kg/m3
mass density (298.15 K, x2 = 0.0681): 887.98 ± 1 kg/m3
mass density (298.15 K, x2 = 0.1359): 885.2 ± 1 kg/m3
mass density (298.15 K, x2 = 0.1976): 882.38 ± 1 kg/m3
mass density (298.15 K, x2 = 0.2728): 878.51 ± 1 kg/m3
mass density (298.15 K, x2 = 0.3442): 874.33 ± 1 kg/m3
mass density (298.15 K, x2 = 0.4143): 869.65 ± 1 kg/m3
mass density (298.15 K, x2 = 0.4658): 865.78 ± 1 kg/m3
mass density (298.15 K, x2 = 0.5243): 860.86 ± 1 kg/m3
mass density (298.15 K, x2 = 0.5649): 857.08 ± 1 kg/m3
mass density (298.15 K, x2 = 0.639): 849.22 ± 1 kg/m3
mass density (298.15 K, x2 = 0.7112): 840.11 ± 1 kg/m3
mass density (298.15 K, x2 = 0.7836): 829.09 ± 1 kg/m3
mass density (298.15 K, x2 = 0.8558): 815.6 ± 1 kg/m3
mass density (298.15 K, x2 = 0.928): 798.66 ± 1 kg/m3
speed of sound (303.15 K, x2 = 0): 1202.4 ± 1.7 m/s
speed of sound (303.15 K, x2 = 0.0681): 1205.3 ± 1.7 m/s
speed of sound (303.15 K, x2 = 0.1359): 1208.1 ± 1.7 m/s
speed of sound (303.15 K, x2 = 0.1976): 1210.5 ± 1.7 m/s
speed of sound (303.15 K, x2 = 0.2728): 1213.3 ± 1.7 m/s
speed of sound (303.15 K, x2 = 0.3442): 1216 ± 1.7 m/s
speed of sound (303.15 K, x2 = 0.4143): 1218.7 ± 1.6 m/s
speed of sound (303.15 K, x2 = 0.4658): 1220.7 ± 1.6 m/s
speed of sound (303.15 K, x2 = 0.5243): 1223.1 ± 1.6 m/s
speed of sound (303.15 K, x2 = 0.5649): 1224.8 ± 1.6 m/s
speed of sound (303.15 K, x2 = 0.639): 1228.3 ± 1.6 m/s
speed of sound (303.15 K, x2 = 0.7112): 1232.3 ± 1.6 m/s
speed of sound (303.15 K, x2 = 0.7836): 1237.2 ± 1.6 m/s
speed of sound (303.15 K, x2 = 0.8558): 1243.5 ± 1.6 m/s
speed of sound (303.15 K, x2 = 0.928): 1252 ± 1.6 m/s
mass density (303.15 K, x2 = 0): 885.78 ± 1 kg/m3
mass density (303.15 K, x2 = 0.0681): 883.27 ± 1 kg/m3
mass density (303.15 K, x2 = 0.1359): 880.47 ± 1 kg/m3
mass density (303.15 K, x2 = 0.1976): 877.64 ± 1 kg/m3
mass density (303.15 K, x2 = 0.2728): 873.75 ± 1 kg/m3
mass density (303.15 K, x2 = 0.3442): 869.55 ± 1 kg/m3
mass density (303.15 K, x2 = 0.4143): 864.84 ± 1 kg/m3
mass density (303.15 K, x2 = 0.4658): 860.95 ± 1 kg/m3
mass density (303.15 K, x2 = 0.5243): 856.01 ± 1 kg/m3
mass density (303.15 K, x2 = 0.5649): 852.2 ± 1 kg/m3
mass density (303.15 K, x2 = 0.639): 844.3 ± 1 kg/m3
mass density (303.15 K, x2 = 0.7112): 835.14 ± 1 kg/m3
mass density (303.15 K, x2 = 0.7836): 824.06 ± 1 kg/m3
mass density (303.15 K, x2 = 0.8558): 810.49 ± 1 kg/m3
mass density (303.15 K, x2 = 0.928): 793.46 ± 1 kg/m3
